In patent US7074447B2 (Laboratories Miret, S.A., priority 2001, dated 2006):

Key:
Experiment in all cases: minimum inhibition concentration and Kull synergy index of LAE / potassium sorbate
Assay type in all cases: cell-based
[1] = tested on: Bacillus megaterium (CECT 44); settings: pH 7.4, aqueous solutions
Procedure: (§1) The invention is now explained by a number of examples. In these examples LAE and sorbate alone and in a number of different combinations have been investigated against a number of bacterial preparations. For the analysis usually an internal method was used. Conditions and medium were Mueller Hinton broth (pH 7.4) or (pH 5.0) for bacteria, Sabouraud broth (pH 5.8) for yeast and Sabouraud medium for moulds. The interaction of the two components of the antimicrobial mixture is calculated according to the method described by Kull et al. (Kull […]. and Mayer R. L., Applied Microbiology, 1961; 6:538-541). According to this method the so-called synergy index is calculated according to the following formula: Synergy index […]. […] Again the effects of the components alone and in combination have been calculated using the same method as described at Example 1.

[2] = tested on: Staphylococcus aureus (ATCC 6538); settings: for SI, synergy index: <1 synergism, 1 addition, >1 antagonism
Procedure: as §1

[3] = tested on: Candida albicans (ATCC 10231); settings: for SI, synergy index: <1 synergism, 1 addition, >1 antagonism
Procedure: The invention is now explained by a number of examples. In these examples LAE and sorbate alone and in a number of different combinations have been investigated against a number of bacterial preparations. For the analysis usually an internal method was used. […] The interaction of the two components of the antimicrobial mixture is calculated according to the method described by Kull et al. (Kull […]. and Mayer R. L., Applied Microbiology, 1961; 6:538-541). According to this method the so-called synergy index is calculated according to the following formula: Synergy index […]. […] The same method was used as described for example 1. […] Again the effects of the components alone and in combination have been calculated using the same method as described at Example 1.

In the case of `CCCCCCCCCCCC(=O)N[C@@H](CCCNC(=N)N)C(=O)OCC.Cl` [LAE, L-arginine, N^α-lauroyl-ethylester monohydrochloride], the “QLAE, minimum inhibition concentration of LAE as single antimicrobial” value [1] is reported as 6.4, the “Qlae, minimum inhibition concentration of LAE in the mixture” value [1] is reported as 6.4 and the Qlae/QLAE [1] is reported as 1. The “Qs, minimum inhibition concentration of potassium sorbate in the mixture” value (shortened to “Qs, minimum inhibition concentration”) [1] was 0, the Qs/QS [1] was 0.00 and the “SI, synergy index” value ([1]; <1 synergism, 1 addition, >1 antagonism) was 1.00. For the same compound, the “QLAE, minimum inhibition concentration of LAE as single antimicrobial” value ([2]; pH 5.0) was 29.3, the “Qlae, minimum inhibition concentration of LAE in the mixture” value ([2]; pH 5.0) was 29.3 and the Qlae/QLAE ([2]; pH 5.0) was 1.00. For the same compound, the “Qs, minimum inhibition concentration” value ([2]; pH 5.0) was 0, the Qs/QS ([2]; pH 5.0) was 0.00 and the “SI, synergy index” value ([2]; pH 5.0) was 1.00. The “QLAE, minimum inhibition concentration of LAE as single antimicrobial” value ([2]; pH 7.4, aqueous solutions) was 3.2, the “Qlae, minimum inhibition concentration of LAE in the mixture” value ([2]; pH 7.4, aqueous solutions) was 3.2 and the Qlae/QLAE ([2]; pH 7.4, aqueous solutions) was 1.0. The “Qs, minimum inhibition concentration” value ([2]; pH 7.4, aqueous solutions) was 0, the Qs/QS ([2]; pH 7.4, aqueous solutions) was 0.00 and the “SI, synergy index” value ([2]; pH 7.4, aqueous solutions) was 1.00. For the same compound, the “QLAE, minimum inhibition concentration of LAE as single antimicrobial” value ([3]; pH 5.0) was 29.3, the “Qlae, minimum inhibition concentration of LAE in the mixture” value ([3]; pH 5.0) was 29.3 and the Qlae/QLAE ([3]; pH 5.0) was 1.00. The “Qs, minimum inhibition concentration” value ([3]; pH 5.0) was 0, the Qs/QS ([3]; pH 5.0) was 0.00 and the “SI, synergy index” value ([3]; pH 5.0) was 1.00. For the same compound, the “QLAE, minimum inhibition concentration of LAE as single antimicrobial” value ([3]; pH 7.4, aqueous solutions) was 25.60, the “Qlae, minimum inhibition concentration of LAE in the mixture” value ([3]; pH 7.4, aqueous solutions) was 25.60 and the Qlae/QLAE ([3]; pH 7.4, aqueous solutions) was 1.00. For the same compound, the “Qs, minimum inhibition concentration” value ([3]; pH 7.4, aqueous solutions) was 0.00, the Qs/QS ([3]; pH 7.4, aqueous solutions) was 0.00 and the “SI, synergy index” value ([3]; pH 7.4, aqueous solutions) was 1.00.
